Results on 15 molecules are retold here after patent publication US6465494B1, “Methods for treatment of cystic fibrosis” (Cell Pathways, Inc., priority 2001, dated 2002).

Test [1] deals with T1, GST-cGB-PDE5 fusion protein (Homo sapiens, UniProt O76074).
T1 construct: made in house; host or cells: E. coli BL21 (DE3)
In words: cGMP binding assay with GST-cGB-PDE5 fusion protein. Conditions: for competition with cGMP binding to GST-cGB-PDE5 at high concentration: compound at high concentration, cGMP 2 μM. An excerpt: RT-PCR method is used to obtain the cGB domain of PDE5 with forward and reverse primers designed from bovine PDE5A cDNA sequence (McAllister-Lucas L. M et al, J. Biol. Chem. 268, 22863-22873, 1993) and the selection among PDE 1-10 families. 5′-3′, Inc. kits for total RNA followed by oligo (dT) column purification of mRNA are used with HT-29 cells. […] It is then cloned into pGEX-5X-3 glutathione-S-transferase (GST) fusion vector (Pharmacia Biotech )with tac promoter, and EcoRI and XhoI cut sites. The fusion vector is then transfected into E. Coli BL21 (DE3) bacteria (Invitrogen). The transfected BL21 bacteria is grown to log phase, and then IPTG is added as an inducer. The induction is carried at 20° C. for 24 hrs. The bacteria are harvested and lysed. The soluble cell lysate is incubated with GSH conjugated Sepharose 4B (GSH-Sepharose 4B). The GST-cGB-PDE5 fusion protein can bind to the GSH-Sepharose beads, and the other proteins are washed off from beads with excessive cold PBS.
Then, the mixture is transferred to Brandel MB-24 cell harvester with GF/B as the filter membrane followed by 2 washes with 10 mL of cold 5 mM potassium buffer(pH 6.8). The membranes are then cut out and transferred to scintillation vials followed by the addition of 1 mL of H2O and 6 mL of Ready Safe™ liquid scintillation cocktail to each vial. The vials are counted on a Beckman LS 6500 scintillation counter.
The quenching by filter membrane or other debris are also calibrated.

Another test addresses PDE5 (Homo sapiens, UniProt O76074). The test can be described thus: cGMP PDE inhibition, 3H-cGMP hydrolysis: PDE5. The format is biochemical. Details: partially purified cGMP-specific PDE isolated from HT-29 cells; endogenous in cells; host or cells: HT-29. As for the experimental part: (Thompson, W. J., Teraski, W. L., Epstein, P. M., Strada, S. J., Advances in Cyclic Nucleotide Research, 10:69-92, 1979, which is incorporated herein by reference). […] The mixture is incubated at 30° C. for 10 minutes with isolated PDE2 and/or PDE5. Reactions are terminated, for example, by boiling the reaction mixture for 75 seconds. After cooling on ice, 100 μl of 0.5 mg/mL snake venom (O. Hannah venom available from Sigma) is added and incubated for 10 minutes at 30° C. This reaction is then terminated by the addition of an alcohol, e.g. 1 mL of 100% methanol. Assay samples are applied to 1 mL Dowex 1-X8 column; and washed with 1 mL of 100% methanol. The amount of radioactivity in the breakthrough and the wash from the column is combined and measured with a scintillation counter. The degree of phosphodiesterase inhibition is determined by calculating the amount of radioactivity in drug-treated reactions and comparing against a control sample (a reaction mixture lacking the tested compound but with drug solvent).
Compounds of this invention are also PDE2 and PDE5 inhibitors as taught in part U.S. patent application Ser. No. 09/046,739 filed Mar. 24, 1998. […] The amount of radioactivity in the breakthrough and the wash from the columns in then measured with a scintillation counter. […]

Another test deals with native bovine PDE5 (Bos taurus, UniProt Q28156). Particulars: read-out: Kd of cGMP binding, native bovine PDE5; cited from earlier work.
The subject of a further test is U937 cells. In words: apoptosis induction of U937 cells (active caspase 3 immunofluorescence). The class given is cell-based. Conditions: 24 hours. On the procedure:
The U937 monocyte cell line was derived from a histocytic lymphoma and can be driven to differentiate into an ‘activated macrophage like’ state by treatment with 5nM phorbal ester (TPA). Treated U937 cells become adherent, increase their cytoplasmic volume and express macrophage-specific cell surface markers. The presence and level of PDE2 and 5 mRNA in both differentiated and non-differentiated U937 cells was confirmed by performing RT-PCR experiments on total RNA.
U937 cells (from ATCC Rockville, Md.) were grown in RPMI media supplemented with 5% FCS, glutamine, antibiotic/antimycotic and sodium pyruvate. Total RNA was isolated from two U937 cultures, one treated with 5nM TPA for 48 hours and one grown in normal media as listed above, using the Rouche High Pure RNA Isolation Kit (cat# 1 828 665) as per manufacturers protocol. cDNA was then synthesized from the total RNA using GibcoBRL Superscriptll (Cat # 18064-022) reverse transcriptase as per manufacturers protocol. The resulting cDNA was used as a template for RT-PCR reactions using primer sets specific for PDE2 (forward: […], reverse: […]) or PDE5 (forward: […], reverse: […]). mRNA for PDE2 and 5 were both present in the untreated U937 cells. Upon treatment with TPA, the relative amounts of PDE2 mRNA increased 5 fold. Therefore, U937 cells treated with TPA and driven to differentiate into an activated macrophage like state have elevated levels of PDE2 mRNA (see FIG. 1).
The presence of PDE2 and PDE5 protein within U937 cells was confirmed by indirect immunofluorescence (IIF). U937 cells were cultured as above. Two U937 cultures, one grown in the presence of 5 nM TPA for 48 hours and one grown in normal media were processed. All cultures were collected by centrifugation (Shandon Cytospin, 2 minutes @ 600 rpm) onto poly-L lysine-coated slides and immediately fixed in fresh 3% paraformaldehyde buffered in PBS for 10 minutes. Adherent cultures were grown on coverslips and fixed as above. […]
The level of apoptosis in U937 cells was quantified by scoring 500 consecutive cells for the presence of active caspase 3. […]

Where two headings read alike, the source gives them in different places.

On to `CCCCOC1C2OP(=O)(O)OCC2OC1n1cnc2c(N)ncnc21` (stereo not shown) [2′-O-butyl-cAMP], for which the “competition with cGMP in binding to the cGMP binding sites of GST-cGB-PDE5” value (“competition with cGMP in binding” below) in test [1] (3H-cGMP 2 μM, 22° C., 1 hour) was “did not compete”.

Turning to `CCCCOC1C2OP(=O)(O)OCC2OC1n1cnc2c(=O)[nH]c(N)nc21` (stereo not shown) [2′-O-butyl-cGMP], the “competition with cGMP in binding” value in test [1] (3H-cGMP 2 μM, 22° C., 1 hour) is “did not compete”.

In the case of `Nc1ncnc2c1ncn2[C@@H]1O[C@@H]2COP(=O)(O)O[C@H]2[C@H]1O` [Cyclic AMP], in test [1], the “competition with cGMP in binding” value was “did not compete”.

On to `O=c1[nH]cnc2c1ncn2[C@@H]1O[C@@H]2COP(=O)(O)O[C@H]2[C@H]1O` [Cyclic IMP, cyclic IMP], for which, in test [1], the “competition with cGMP binding to GST-cGB-PDE5 at high concentration” value is recorded as “can partially compete”.

Consider `CC1=C(CC(=O)NCc2ccccc2)c2cc(F)ccc2/C1=C\c1ccncc1` [Example 1, (Z)-5-Fluoro-2-Methyl-(4-Pyridinylidene)-3-(N-Benzyl)-Indenylacetamide], for which, on PDE5, the midpoint of inhibition, the IC50, lay at 680 nM.

For the molecule `Nc1nc2c(nc(Br)n2[C@@H]2O[C@@H]3COP(=O)(O)O[C@H]3[C@H]2O)c(=O)[nH]1` [Example 8-bromo-cGMP, 8-bromo-cGMP], the “competition with cGMP binding to GST-cGB-PDE5 at high concentration” value in test [1] was “can partially compete”.

With `O=C([O-])C1CCN(c2nc(NCc3ccc4c(c3)OCO4)c3cc(Cl)ccc3n2)CC1.[Na+]` [Example E4021], the “competition with cGMP in binding” value in test [1] (3H-cGMP 2 μM, 22° C., 1 hour) is recorded as “None of the PDE5 inhibitors showed any competition with cGMP”.

As for `CSc1ccc(/C=C2/C(C)=C(CC(=O)O)c3cc(F)ccc32)cc1` [Sulindac sulfide, sulindac sulfide], the “competition with cGMP in binding” value in test [1] (3H-cGMP 2 μM, 22° C., 1 hour) is given as “None of the PDE5 inhibitors showed any competition with cGMP”.

For `Nc1ccn([C@@H]2O[C@@H]3COP(=O)(O)O[C@H]3[C@H]2O)c(=O)n1` [cCMP, cyclic CMP], the “competition with cGMP in binding” value in test [1] (3H-cGMP 2 μM, 22° C., 1 hour) was “did not compete”.

Take `Nc1nc2c(ncn2[C@@H]2O[C@@H]3COP(=O)(O)O[C@H]3[C@H]2O)c(=O)[nH]1` [cGMP, cyclic 3′,5′-guanosine monophosphate]: the Kd (usually the constant that tells how readily two partners part at equilibrium) in test [1] (read-out: Kd of cGMP binding to GST-cGB-PDE5 fusion protein, two cGMP binding sites) is 1600 ± 200 nM; at native bovine PDE5, 1300 nM.

For `O=c1ccn([C@@H]2O[C@@H]3COP(=O)(O)O[C@H]3[C@H]2O)c(=O)[nH]1` [cUMP, cyclic UMP], the “competition with cGMP in binding” value in test [1] (3H-cGMP 2 μM, 22° C., 1 hour) was “did not compete”.

As to `CC1=C(CC(=O)O)c2cc(F)ccc2/C1=C\c1ccc(S(C)(=O)=O)cc1` [exisulind], the “competition with cGMP in binding” value in test [1] (3H-cGMP 2 μM, 22° C., 1 hour) is recorded as “None of the PDE5 inhibitors showed any competition with cGMP”.

Turning to `COc1ccc(C2CNC(=O)C2)cc1OC1CCCC1` (stereo not shown) [rolipram, reference compound], the “levels of apoptosis (active caspase 3)” value with U937 cells (0.5uM) was “No increase in the levels of apoptosis compared to normal background”.

`CCCc1nn(C)c2c(=O)[nH]c(-c3cc(S(=O)(=O)N4CCN(C)CC4)ccc3OCC)nc12` [sildenafil, reference compound]: the “levels of apoptosis (active caspase 3)” value in the test on U937 cells (0.3nM) is on record as “No increase in the levels of apoptosis compared to normal background”.

Turning to `CCCOc1ccccc1-c1nc2nn[nH]c2c(=O)[nH]1` [zaprinast], the “competition with cGMP in binding” value in test [1] (3H-cGMP 2 μM, 22° C., 1 hour) is “None of the PDE5 inhibitors showed any competition with cGMP”.
